Experimental data from patent publication US8563717B2, “Adenine derivatives” (GlaxoSmithKline LLC, priority 2008, dated 2013).
Where a name gives a salt, the structure may show the parent alone.

How the values were obtained:
Format in all cases: cell-based
TNF-α = experiment: Induction of TNF-α using fresh human PBMCs; conditions: PBMC, 24 hr incubation, relative to 2 μM resiquimod control, read-out: mean pEC50 for induction of TNF-α (converted)
Description: (§1) Assay for the Induction of Interferon-α and TNF-α Using Fresh Human Peripheral Blood Mononuclear Cells (PBMCs)
(§2) Compounds were dissolved and serially diluted in DMSO to give 100× the required concentration range using a Biomek 2000. 1 ul of test compound was transferred into 96-well tissue culture plates using a Biomek FX. Each compound was assayed in duplicate for each donor. Each plate contained a dilution series of the TLR7/8 agonist resiquimod as standard and Column 11 contained 1 μl of 200 μM resiquimod (giving a 2 μM final concentration, used to define the approximate maximal response to resiquimod).
(§3) Blood samples from two human donors were collected into sodium heparin (10 U/ml). 25 ml volumes of whole blood were overlaid onto 15 mls Histopaque in Leucosep tubes which were centrifuged at 800 g for 20 min and the band at the plasma/histopaque interface carefully removed. The collected cells were centrifuged at 2500 rpm for 10 min. and the pellet resuspended in 10 ml of media (RPMI 1640 (Low endotoxin) supplemented with 10% v/v foetal calf serum (FCS, low endotoxin) 100 U/ml penicillin G, 100 μg/ml streptomycin, 10 mM L-glutamine and 1× non-essential amino acids). A 1:20 dilution of the cells was prepared using trypan blue & the cells counted using a haemocytometer. The PBMCs were diluted to give a final concentration of 2×10^6/ml and 100 ul of this cells suspension was added to wells containing 1 μl of diluted test compound.
(§4) The cell preparations were incubated for 24 hr. (37° C., 95% air, 5% CO2) after which a sample of the supernatant was removed using the Biomek FX and assayed for both IFN-α and TNF-α using the MSD (Mesoscale Discovery) electrochemiluminescence assay platform. The IFN-α assay was carried out similarly to that described above. The TNF-α assay was carried out as per kit instructions (Cat No K111BHB).
(§5) Cytokine released was expressed as a percentage of the 2 μM resiquimod control (column 11). This percentage was plotted against compound concentration and the pEC50 for the response determined by non-linear least squares curve fitting. For the IFN-α responses generally a 4 parameter logistic model was selected. For the TNF responses where a clear maximum response was obtained (i.e. a well defined plateau in the response was observed) then a 4 parameter model was generally used. If the upper asymptote of the curve wasn't well defined then the curve fitting was generally constrained to a maximal response of 100% (i.e., to the response to 2 μM resiquimod) or to the response of the highest concentration tested if this was greater than the resiquimod response. Some curves were bell shaped for one or both cytokines and the cytokine data on the down slope of the bell shaped response (i.e. concentrations above those giving the maximal response) were generally excluded from the fit, usually with the exception of the concentration immediately above the peak response. Curve fitting thus concentrated on the up slope of the dose response curve.

Interferon-α [1] = experiment: Induction of Interferon-α using cryopreserved human PBMCs; conditions: PBMC, 24 h incubation, normalised to 1 uM resiquimod, read-out: mean pEC50 for induction of IFN-α (converted)
Procedure, shortened: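 Cryopreserved healthy-donor PBMCs at 1×10^6 cells/ml in RPMI/10% FCS with 1000 units/ml IFN-gamma, exposed 24 h at 37 °C to 11-point two-fold compound dilutions. Supernatant IFN-α quantified by MSD electrochemiluminescence immunoassay; pEC50 from 4-parameter fit, normalised to 1 uM resiquimod and DMSO.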

Interferon-α [2] = experiment: Induction of Interferon-α using fresh human PBMCs; conditions: PBMC, 24 hr incubation, relative to 2 μM resiquimod control, read-out: mean pEC50 for induction of IFN-α (converted)
Description: as §1, §2, §3, §4, §5

Structure (SMILES) | EC50 (TNF-α) | EC50 (Interferon-α [1]) | EC50 (Interferon-α [2])
CCCCOc1nc(N)c2[nH]c(=O)n(CC3CCCN(CC)C3)c2n1 (stereo not shown) [Example 1, 6-Amino-2-butoxy-9-[(1-ethyl-3-piperidinyl)methyl]-7,9-dihydro-8H-purin-8-one] | > 1000 nM | < 1580 nM | < 100 nM
CCCCOc1nc(N)c2[nH]c(=O)n(CC3CCN(CC)CC3)c2n1 [Example 7] | > 1000 nM | < 1580 nM | < 100 nM
CCCCOc1nc(N)c2[nH]c(=O)n(CCCC3CCCCN3CC(C)C)c2n1 (stereo not shown) [Example 18, 6-Amino-2-(butyloxy)-9-{3-[1-(2-methylpropyl)-2-piperidinyl]propyl}-7,9-dihydro-8H-purin-8-one] | > 31.6 nM | < 1580 nM | < 0.316 nM
CCCCOc1nc(N)c2[nH]c(=O)n(CC3CCCN(CCC)C3)c2n1 (stereo not shown) [Example 23, 6-Amino-2-(butyloxy)-9-[(1-propyl-3-piperidinyl)methyl]-7,9-dihydro-8H-purin-8-one] | > 1000 nM | < 1580 nM | < 100 nM
CCCCOc1nc(N)c2[nH]c(=O)n(CC3CCCN(C(C)C)C3)c2n1 (stereo not shown) [Example 24, 6-Amino-2-(butyloxy)-9-{[1-(1-methylethyl)-3-piperidinyl]methyl}-7,9-dihydro-8H-purin-8-one] | > 1000 nM | < 1580 nM | < 100 nM
CCCCOc1nc(N)c2[nH]c(=O)n(CCC3CCCNC3)c2n1 (stereo not shown) [Example 29, 6-amino-2-(butyloxy)-9-[2-(3-piperidinyl)ethyl]-7,9-dihydro-8H-purin-8-one] | > 1000 nM | < 1580 nM | < 100 nM
CCCCOc1nc(N)c2[nH]c(=O)n(CCC3CCCN(CC)C3)c2n1 (stereo not shown) [Example 30, 6-Amino-2-(butyloxy)-9-[2-(1-ethyl-3-piperidinyl)ethyl]-7,9-dihydro-8H-purin-8-one] | > 1000 nM | < 1580 nM | < 10 nM
CCCCOc1nc(N)c2[nH]c(=O)n(CCC3CCCN(C(C)C)C3)c2n1 (stereo not shown) [Example 32, 6-Amino-2-(butyloxy)-9-{2-[1-(1-methylethyl)-3-piperidinyl]ethyl}-7,9-dihydro-8H-purin-8-one] | > 1000 nM | < 1580 nM | < 1 nM
CCCCOc1nc(N)c2[nH]c(=O)n(CCC3CCCN(C4CCCCC4)C3)c2n1 (stereo not shown) [Example 38, 6-Amino-2-(butyloxy)-9-[2-(1-cyclohexyl-3-piperidinyl)ethyl]-7,9-dihydro-8H-purin-8-one] | > 1000 nM | < 1580 nM | < 1 nM
CCC[C@H](C)Oc1nc(N)c2[nH]c(=O)n(CCC3CCCN(CC)C3)c2n1 (stereo partly drawn) [Example 41, 6-Amino-9-[2-(1-ethyl-3-piperidinyl)ethyl]-2-{[(1S)-1-methylbutyl]oxy}-7,9-dihydro-8H-purin-8-one] | > 31.6 nM | < 1580 nM | < 0.316 nM
CCC[C@H](C)Oc1nc(N)c2[nH]c(=O)n(CCC3CCCN(C(C)C)C3)c2n1 (stereo partly drawn) [Example 42, 6-Amino-2-{[(1S)-1-methylbutyl]oxy}-9-{2-[1-(1-methylethyl)-3-piperidinyl]ethyl}-7,9-dihydro-8H-purin-8-one] | > 31.6 nM | < 1580 nM | < 0.316 nM
CCC[C@H](C)Oc1nc(N)c2[nH]c(=O)n(CCCCC3CCCN(CC)C3)c2n1 (stereo partly drawn) [Example 66, 6-Amino-9-[4-(1-ethyl-3-piperidinyl)butyl]-2-{[(1S)-1-methylbutyl]oxy}-7,9-dihydro-8H-purin-8-one] | > 31.6 nM | < 1580 nM | < 0.316 nM
CCCCOc1nc(N)c2[nH]c(=O)n(CCCCCC3CCCN(C(C)C)C3)c2n1 (stereo not shown) [Example 69, 6-Amino-2-(butyloxy)-9-{5-[1-(1-methylethyl)-3-piperidinyl]pentyl}-7,9-dihydro-8H-purin-8-one] | > 1000 nM | < 1580 nM | < 10 nM
CCCCOc1nc(N)c2[nH]c(=O)n(CCC3CCN(C(C)C)CC3)c2n1 [Example 81, 6-Amino-2-(butyloxy)-9-{2-[1-(1-methylethyl)-4-piperidinyl]ethyl}-7,9-dihydro-8H-purin-8-one] | > 1000 nM | < 1580 nM | < 100 nM
CCC[C@H](C)Oc1nc(N)c2[nH]c(=O)n(CCC3CCN(CC)CC3)c2n1 [Example 91, 6-Amino-9-[2-(1-ethyl-4-piperidinyl)ethyl]-2-{[(1S)-1-methylbutyl]oxy}-7,9-dihydro-8H-purin-8-one] | > 31.6 nM | < 1580 nM | < 0.316 nM
CCCCOc1nc(N)c2[nH]c(=O)n(CCCC3CCN(CCC)CC3)c2n1 [Example 94, 6-Amino-2-(butyloxy)-9-[3-(1-propyl-4-piperidinyl)propyl]-7,9-dihydro-8H-purin-8-one] | > 1000 nM | < 1580 nM | < 1 nM
CCCCOc1nc(N)c2[nH]c(=O)n(CCCC3CCN(C(C)C)CC3)c2n1 [Example 95, 6-Amino-2-(butyloxy)-9-{3-[1-(1-methylethyl)-4-piperidinyl]propyl}-7,9-dihydro-8H-purin-8-one] | > 1000 nM | < 1580 nM | < 10 nM
CCCCOc1nc(N)c2[nH]c(=O)n(CCCC3CCN(CCCC)CC3)c2n1 [Example 96, 6-Amino-2-(butyloxy)-9-[3-(1-butyl-4-piperidinyl)propyl]-7,9-dihydro-8H-purin-8-one] | > 1000 nM | < 1580 nM | < 1 nM
CCCCOc1nc(N)c2[nH]c(=O)n(CCCC3CCN(C4CCCCC4)CC3)c2n1 [Example 102, 6-Amino-2-(butyloxy)-9-[3-(1-cyclohexyl-4-piperidinyl)propyl]-7,9-dihydro-8H-purin-8-one] | > 1000 nM | < 1580 nM | < 10 nM
CCC[C@H](C)Oc1nc(N)c2[nH]c(=O)n(CCCC3CCNCC3)c2n1 [Example 104, 6-Amino-2-{[(1S)-1-methylbutyl]oxy}-9-[3-(4-piperidinyl)propyl]-7,9-dihydro-8H-purin-8-one] | > 31.6 nM | < 1580 nM | < 0.316 nM
CCCCOc1nc(N)c2[nH]c(=O)n(CCCCCC3CCN(CCC(C)C)CC3)c2n1 [Example 128, 6-amino-2-(butyloxy)-9-{5-[1-(3-methylbutyl)-4-piperidinyl]pentyl}-7,9-dihydro-8H-purin-8-one] |  | < 1580 nM | 
CCCCOc1nc(N)c2[nH]c(=O)n(CCCCCC3CCN(C4CCCC4)CC3)c2n1 [Example 129, 6-Amino-2-(butyloxy)-9-[5-(1-cyclopentyl-4-piperidinyl)pentyl]-7,9-dihydro-8H-purin-8-one] |  | < 1580 nM | 
CCCCOc1nc(N)c2[nH]c(=O)n(CCCCCC3CCN(CC4CCCC4)CC3)c2n1 [Example 130, 6-Amino-2-(butyloxy)-9-{5-[1-(cyclopentylmethyl)-4-piperidinyl]pentyl}-7,9-dihydro-8H-purin-8-one hydrochloride] |  | < 1580 nM | 
CCCCOc1nc(N)c2[nH]c(=O)n(CCCCCC3CCN(CCC4CCCCC4)CC3)c2n1 [Example 131, 6-Amino-2-(butyloxy)-9-{5-[1-(2-cyclohexylethyl)-4-piperidinyl]pentyl}-7,9-dihydro-8H-purin-8-one hydrochloride] |  | < 1580 nM | 
CCCCOc1nc(N)c2[nH]c(=O)n(CCCCCCC3CCNCC3)c2n1 [Example 132, 6-Amino-2-(butyloxy)-9-[6-(4-piperidinyl)hexyl]-7,9-dihydro-8H-purin-8-one hydrochloride] |  | < 1580 nM | 
CCCCOc1nc(N)c2[nH]c(=O)n(CCCCCCC3CCN(CC)CC3)c2n1 [Example 133, 6-Amino-2-(butyloxy)-9-[6-(1-ethyl-4-piperidinyl)hexyl]-7,9-dihydro-8H-purin-8-one] |  | < 1580 nM | 
CCCCOc1nc(N)c2[nH]c(=O)n(CCCCCCC3CCN(C(C)C)CC3)c2n1 [Example 134, 6-Amino-2-(butyloxy)-9-{6-[1-(1-methylethyl)-4-piperidinyl]hexyl}-7,9-dihydro-8H-purin-8-one] |  | < 1580 nM | 
